Tested on: Th17 cells
Assay: Lipidomics of Th17 cells
Type: cell-based, mouse
Parameters: key to nCE(16:0) / nCE(18:2) / nDCER(22:0) / nDCER[FA14:0] / nFFA(12:0) / nFFA(14:1) / nFFA(18:4) / nCE(22:0) / nCE(22:6) / nCE(24:1) / nCE[FA14:1] / nCE(12:0) / nCE[FA16:0] / nCE[FA17:0] / nCE[FA18:2] / nCE[FA22:6]: mole percent of each fatty acid within its lipid class
Experimental: Specific cholesterol precursors like desmosterol and oxysterols, such as 7β, 27-dihydroxycholesterol (7β, 27-OHC), have been identified as ligands for RORγt[21],[22] and shown to modulate Th17 differentiation. […] Next, we extended our studies to lipid metabolites and profiled the lipidome of Th17 cells treated with DMSO or FGIN-1-27.
(a) Quantitation of cholesterol esters, triacylglycerols (TAGs), phosphatidylethanolamine (PE) and phosphatidylcholine (PC) in Th17 cells 72 hours after treatment with FGIN-1-27. The error bars represent SD. (b) Heat map showing fatty acid composition (mole percent) for different lipid classes after treatment with FGIN-1-27. (c) Pie charts showing proportions of different fatty acid classes namely PUFAs, MUFAs, ODD and SFAs within the cholesterol esters. (d) Transcript analysis for CD5L 72 hours post treatment with FGIN-1-27. The error bars represent SD.
Th17 cells were differentiated from naïve purified CD4 T cells and treated with either FGIN-1-27 (10 µM) or DMSO during polarization. 10 million cells/treatment were harvested and snap frozen. […] The extracts were concentrated under nitrogen and reconstituted in 0.25 mL of dichloromethane:methanol (50:50) containing 10 mM ammonium acetate. The extracts were placed in vials for infusion-MS analyses, performed on a SelexION equipped Sciex 5500 QTRAP using both positive and negative mode electrospray. Each sample was subjected to 2 analyses, with IMS-MS conditions optimized for lipid classes monitored in each analysis. The 5500 QTRAP was operated in MRM mode to monitor the transitions for over 1,100 lipids from up to 14 lipid classes. Individual lipid species were quantified based on the ratio of signal intensity for target compounds to the signal intensity for an assigned internal standard of known concentration. Lipid class concentrations were calculated from the sum of all molecular species within a class, and fatty acid compositions were determined by calculating the proportion of individual fatty acids within each class.

`CCCCCCN(CCCCCC)C(=O)Cc1c(-c2ccc(F)cc2)[nH]c2ccccc12` [FGIN-1-27, N, N-di-n-hexyl 2-(4-fluorophenyl) indole-3-acetamide] was tested, and the “down-regulation of cholesterol esters” value (72 hours, 10 µM) was 5 folds, the “reduction in triacylglycerides (TAGs)” value (72 hours, 10 µM) was 2 fold and the “MUFA proportion within the cholesterol esters” value (Fig. 6c pie chart) was 39%. The “ODD proportion within the cholesterol esters” value (Fig. 6c pie chart) was 10%, the “PUFA proportion within the cholesterol esters” value (Fig. 6c pie chart) was 14% and the “SFA proportion within the cholesterol esters” value (Fig. 6c pie chart) was 37%. For the same compound, the nCE (Th17 cells, 10 µM) was 0.3432, the “nCE(12:0)” value (Th17 cells, 10 µM) was 0.3209 and the “nCE(14:0)” value (Th17 cells, 10 µM) was 7.863. The “nCE(14:1)” value (Th17 cells, 10 µM) was 0.8946, the “nCE(15:0)” value (Th17 cells, 10 µM) was 6.739 and the “nCE(16:0)” value (Th17 cells, 10 µM) was 20.165. For the same compound, the “nCE(16:1)” value (Th17 cells, 10 µM) was 5.753, the “nCE(17:0)” value (Th17 cells, 10 µM) was 3.887 and the “nCE(18:0)” value (Th17 cells, 10 µM) was 9.753. For the same compound, the “nCE(18:1)” value (Th17 cells, 10 µM) was 25.3604, the “nCE(18:2)” value (Th17 cells, 10 µM) was 6.676 and the “nCE(18:3)” value (Th17 cells, 10 µM) was 0.6485. For the same compound, the “nCE(18:4)” value (Th17 cells, 10 µM) was 0.0392, the “nCE(20:0)” value (Th17 cells, 10 µM) was 0.838 and the “nCE(20:1)” value (Th17 cells, 10 µM) was 1.913. For the same compound, the “nCE(20:2)” value (Th17 cells, 10 µM) was 0.3245, the “nCE(20:3)” value (Th17 cells, 10 µM) was 0.8988 and the “nCE(20:4)” value (Th17 cells, 10 µM) was 3.812. For the same compound, the “nCE(20:5)” value (Th17 cells, 10 µM) was 0.1401, the “nCE(22:0)” value (Th17 cells, 10 µM) was 0.2674 and the “nCE(22:1)” value (Th17 cells, 10 µM) was 0.4486. The “nCE(22:2)” value (Th17 cells, 10 µM) was 0.3494, the “nCE(22:4)” value (Th17 cells, 10 µM) was 0.2548 and the “nCE(22:5)” value (Th17 cells, 10 µM) was 0.2179. For the same compound, the “nCE(22:6)” value (Th17 cells, 10 µM) was 0.5711, the “nCE(24:0)” value (Th17 cells, 10 µM) was 0.624 and the “nCE(24:1)” value (Th17 cells, 10 µM) was 1.24. The nCER (Th17 cells, 10 µM) was 0.6286, the “nCER(14:0)” value (Th17 cells, 10 µM) was 0.8623 and the “nCER(16:0)” value (Th17 cells, 10 µM) was 27.3543. For the same compound, the “nCER(18:0)” value (Th17 cells, 10 µM) was 2.572, the “nCER(18:1)” value (Th17 cells, 10 µM) was 0.1145 and the “nCER(20:0)” value (Th17 cells, 10 µM) was 2.068. For the same compound, the “nCER(20:1)” value (Th17 cells, 10 µM) was 0.05342, the “nCER(22:0)” value (Th17 cells, 10 µM) was 7.074 and the “nCER(22:1)” value (Th17 cells, 10 µM) was 0.4579. The “nCER(24:0)” value (Th17 cells, 10 µM) was 30.2198, the “nCER(24:1)” value (Th17 cells, 10 µM) was 28.2356 and the “nCER(26:0)” value (Th17 cells, 10 µM) was 0.4655. The “nCER(26:1)” value (Th17 cells, 10 µM) was 0.5227, the “nCER[FA14:0]” value (Th17 cells, 10 µM) was 0.8623 and the “nCER[FA16:0]” value (Th17 cells, 10 µM) was 27.3543. The “nCER[FA18:0]” value (Th17 cells, 10 µM) was 2.572, the “nCER[FA18:1]” value (Th17 cells, 10 µM) was 0.1145 and the “nCER[FA20:0]” value (Th17 cells, 10 µM) was 2.068. The “nCER[FA20:1]” value (Th17 cells, 10 µM) was 0.05342, the “nCER[FA22:0]” value (Th17 cells, 10 µM) was 7.074 and the “nCER[FA22:1]” value (Th17 cells, 10 µM) was 0.4579. For the same compound, the “nCER[FA24:0]” value (Th17 cells, 10 µM) was 30.2198, the “nCER[FA24:1]” value (Th17 cells, 10 µM) was 28.2356 and the “nCER[FA26:0]” value (Th17 cells, 10 µM) was 0.4655. The “nCER[FA26:1]” value (Th17 cells, 10 µM) was 0.5227, the “nCE[FA12:0]” value (Th17 cells, 10 µM) was 0.3209 and the “nCE[FA14:0]” value (Th17 cells, 10 µM) was 7.863. For the same compound, the “nCE[FA14:1]” value (Th17 cells, 10 µM) was 0.8946, the “nCE[FA15:0]” value (Th17 cells, 10 µM) was 6.739 and the “nCE[FA16:0]” value (Th17 cells, 10 µM) was 20.165. The “nCE[FA16:1]” value (Th17 cells, 10 µM) was 5.753, the “nCE[FA17:0]” value (Th17 cells, 10 µM) was 3.887 and the “nCE[FA18:0]” value (Th17 cells, 10 µM) was 9.753. For the same compound, the “nCE[FA18:1]” value (Th17 cells, 10 µM) was 25.3604, the “nCE[FA18:2]” value (Th17 cells, 10 µM) was 6.676 and the “nCE[FA18:3]” value (Th17 cells, 10 µM) was 0.6485. For the same compound, the “nCE[FA18:4]” value (Th17 cells, 10 µM) was 0.0392, the “nCE[FA20:0]” value (Th17 cells, 10 µM) was 0.838 and the “nCE[FA20:1]” value (Th17 cells, 10 µM) was 1.913. For the same compound, the “nCE[FA20:2]” value (Th17 cells, 10 µM) was 0.3245, the “nCE[FA20:3]” value (Th17 cells, 10 µM) was 0.8988 and the “nCE[FA20:4]” value (Th17 cells, 10 µM) was 3.812. The “nCE[FA20:5]” value (Th17 cells, 10 µM) was 0.1401, the “nCE[FA22:0]” value (Th17 cells, 10 µM) was 0.2674 and the “nCE[FA22:1]” value (Th17 cells, 10 µM) was 0.4486. The “nCE[FA22:2]” value (Th17 cells, 10 µM) was 0.3494, the “nCE[FA22:4]” value (Th17 cells, 10 µM) was 0.2548 and the “nCE[FA22:5]” value (Th17 cells, 10 µM) was 0.2179. For the same compound, the “nCE[FA22:6]” value (Th17 cells, 10 µM) was 0.5711, the “nCE[FA24:0]” value (Th17 cells, 10 µM) was 0.624 and the “nCE[FA24:1]” value (Th17 cells, 10 µM) was 1.24. The nDAG (Th17 cells, 10 µM) was 2.149, the “nDAG(12:0/16:0)” value (Th17 cells, 10 µM) was 0.1725 and the “nDAG(12:0/18:0)” value (Th17 cells, 10 µM) was 0.3066. The “nDAG(12:0/18:1)” value (Th17 cells, 10 µM) was 0.3287, the “nDAG(12:0/18:2)” value (Th17 cells, 10 µM) was 0.07889 and the “nDAG(14:0/14:0)” value (Th17 cells, 10 µM) was 0.8017. For the same compound, the “nDAG(14:0/16:0)” value (Th17 cells, 10 µM) was 9.103, the “nDAG(14:0/16:1)” value (Th17 cells, 10 µM) was 1.239 and the “nDAG(14:0/18:1)” value (Th17 cells, 10 µM) was 2.636. The “nDAG(14:0/18:2)” value (Th17 cells, 10 µM) was 0.1578, the “nDAG(14:0/18:3)” value (Th17 cells, 10 µM) was 0.01025 and the “nDAG(14:0/20:0)” value (Th17 cells, 10 µM) was 0.2618. The “nDAG(14:0/20:4)” value (Th17 cells, 10 µM) was 0.02818, the “nDAG(14:0/22:6)” value (Th17 cells, 10 µM) was 0.05137 and the “nDAG(14:1/16:0)” value (Th17 cells, 10 µM) was 0.2729. For the same compound, the “nDAG(14:1/18:1)” value (Th17 cells, 10 µM) was 0.217 and the “nDAG(15:0/18:1)” value (Th17 cells, 10 µM) was 0.2893.
